Measurements: patent US20250049809A1, “INHIBITORS OF MUTANT IDH1 AND IDH2” (Board of Regents, The University of Texas System, priority 2023, published 2025)
Like-named read-outs stand apart in the source and are kept apart here.

Experiments:
[1] = rcm bond, DCE, 60.0 °C
[2] = rcm bond
[3] = target: mIDH1R132H/S280F (Homo sapiens (Human), UniProt O75874, R132H/S280F); experiment: mIDH1 R132H/S280F enzymatic activity assay (NADPH fluorescence); format: biochemical; settings: enzyme assay, 1 hour preincubation; read-out: IDH1R132H/S280F IC50
Protocol: (§1) The enzymatic activity of mIDH1R132H/S280F was assessed by measuring the fluorescence of the NADPH. The assay was performed in 384 well, white ProxiPlates (PerkinElmer, 6008280) in assay buffer containing 50 mM Hepes (Life Technologies, 15630080), 50 mM KCl (Teknova, P0327), 10 mM MgCl2 (Sigma-Aldrich, M1028), 1 mM DTT (Sigma-Aldrich, 43815), 0.02% BSA (Sigma-Aldrich, A3059) at pH 7.5. The final reaction volume was 10 μL. Stock solutions of the test compounds were prepared in 100% DMSO (Sigma, D2650) and serially diluted 1:3 using 100% DMSO. 50 nL of compound were then transferred to the assay plate using the Beckman Coulter ECHO 650 Acoustic Liquid Handler for a final DMSO concentration of 0.5%. 5 μL of a mIDH1R132H/S280F and NADPH (Santa Cruz, SC202725C) mixture were added to the assay plate for a final concentration of 2 nM and 10 PM, respectively. 5 μL of NADPH alone were added to negative control wells followed by a 1 hour preincubation at room temperature. 5 μL of alphaketoglutarate (Sigma-Aldrich, K1128) were added to the assay plate for a final concentration of 120 μM. Fluorescence of NADPH (excitation: 350 nm, emission 450 nm) was immediately measured kinetically for approximately 90 minutes using the BioTek Synergy Neo plate reader.

[4] = target: mIDH2R140Q (Homo sapiens (Human), UniProt P48735, R140Q); experiment: mIDH2 R140Q enzymatic activity assay (NADPH fluorescence); format: biochemical; settings: enzyme assay, 1 hour preincubation; read-out: IDH2R140Q IC50
Protocol: as §1, with “of mIDH2R140Q” for “of mIDH1R132H/S280F”, “a mIDH2R140Q” for “a mIDH1R132H/S280F”, “of 3” for “of 2”, “10 μM,” for “10 PM,”, “of 300” for “of 120”, “approximately 150” for “approximately 90”

[5] = target: U87 IDH1R132H (Homo sapiens (Human), UniProt O75874, R132H); experiment: U87 IDH1 R132H 2-HG cellular assay; format: cell-based; settings: extracellular 2HG, 24 h treatment, IDH1 mutant-U-87 isogenic cell line
Protocol: The IDH1 mutant-U-87 isogenic cell line (ATCC HTB-14IG) used to test cellular inhibition is a glioma IDH1R132H mutant isogenic line derived from the parental U-87MG cell line. These cells are maintained in EMEM (ATCC 30-2003) culture media with 10% FBS and 10 U/mL Penicillin-Streptomycin. Twelve thousand cells are plated in polystyrene 384 well cell culture plates (Greiner Bio-One 781091) (12,000 cells/well) approximately 18 hours before compound treatment. Immediately before treatment, the cells are washed twice with PBS, followed by culture media replenishing. Cells are then treated with different concentrations of test compounds (5 μM to 0.3 pM) for 24 h. Extracellular 2HG levels are measured from cell culture media. For analyte extraction, 30 μL of culture media is transferred to 120 uL 100% acetonitrile in a deep 384 well plate and mixed well, followed by 5 min centrifugation at 3700 rpm at room temperature. 100 μL of supernatant is transferred to a flat bottom 384 well plate. Samples are run on the Agilent RapidFire-Mass Spectrometry instrument to detect 2HG levels. The samples from each well were aspirated for 600 ms and loaded onto a HILIC solid-phase extraction cartridge (Agilent) followed by a wash step for 3000 ms with 90% acetonitrile containing 5 mM ammonium acetate. Analytes were then eluted off the cartridge into the Agilent 6460 Triple Quad mass spectrometer with a 4500 ms elution step using 30% acetonitrile containing 5 mM ammonium acetate. The HILIC cartridge was then re-equilibrated by 90% acetonitrile containing 5 mM ammonium acetate for 500 ms. The 2HG was detected by an Agilent 6460 Triple Quad mass spectrometer in negative ion mode. Multiple reaction monitoring was used to quantify 2HG using the precursor ion and product ion at m/z 147.03 and 128.9, respectively. The percent activity of each sample is calculated by using DMSO and control compound treated references, and IC50 values are obtained using the GeneData Screener data analysis program.

[6] = target: TF1 IDH2R140Q (Homo sapiens (Human), UniProt P48735, R140Q); experiment: TF1 IDH2 R140Q 2-HG cellular assay; format: cell-based; settings: extracellular 2HG, 24 hr treatment, IDH2 mutant-TF1 isogenic cell line
Protocol: The IDH2 mutant-TF1 isogenic cell line (ATCC CRL-20031G) used to test cellular inhibition is an erythroblast cell line that was isolated from the marrow of a patient with erythroleukemia with the IDH2R140Q mutation. These cells are maintained in RPMI-1640 (ATCC 30-2001) culture media with 10% FBS, 10 U/mL Penicillin-Streptomycin, and 2 ng/mL GM-CSF. Thirty thousand cells are plated in polystyrene tissue culture treated 384 well cell culture plates (PerkinElmer 6007680) (30,000 cells/well) approximately 2 hours before compound treatment. Cells are then treated with different concentrations of test compounds (5 μM to 0.3 pM) for 24 hr. Extracellular 2HG levels are measured from cell culture media. For analyte extraction, 30 μL of culture media is transferred to 120 μL 100% acetonitrile in a deep 384 well plate and mixed well, followed by 5 min centrifugation at 3700 rpm at room temperature. 100 μL of supernatant is transferred to a flat bottom 384 well plate. Samples are run on the Agilent RapidFire-Mass Spectrometry instrument to detect 2HG levels. The samples from each well were aspirated for 600 ms and loaded onto a HILIC solid-phase extraction cartridge (Agilent) followed by a wash step for 3000 ms with 90% acetonitrile containing 5 mM ammonium acetate. Analytes were then eluted off the cartridge into the Agilent 6460 Triple Quad mass spectrometer with a 4500 ms elution step using 30% acetonitrile containing 5 mM ammonium acetate. The HILIC cartridge was then re-equilibrated by 90% acetonitrile containing 5 mM ammonium acetate for 500 ms. The 2HG was detected by an Agilent 6460 Triple Quad mass spectrometer in negative ion mode. Multiple reaction monitoring was used to quantify 2HG using the precursor ion and product ion at m/z 147.03 and 128.9, respectively. The percent activity of each sample is calculated by using DMSO and control compound treated references, and IC50 values are obtained using the GeneData Screener data analysis program.

Chain of U87 IDH1R132H (O75874 whole entry R132H): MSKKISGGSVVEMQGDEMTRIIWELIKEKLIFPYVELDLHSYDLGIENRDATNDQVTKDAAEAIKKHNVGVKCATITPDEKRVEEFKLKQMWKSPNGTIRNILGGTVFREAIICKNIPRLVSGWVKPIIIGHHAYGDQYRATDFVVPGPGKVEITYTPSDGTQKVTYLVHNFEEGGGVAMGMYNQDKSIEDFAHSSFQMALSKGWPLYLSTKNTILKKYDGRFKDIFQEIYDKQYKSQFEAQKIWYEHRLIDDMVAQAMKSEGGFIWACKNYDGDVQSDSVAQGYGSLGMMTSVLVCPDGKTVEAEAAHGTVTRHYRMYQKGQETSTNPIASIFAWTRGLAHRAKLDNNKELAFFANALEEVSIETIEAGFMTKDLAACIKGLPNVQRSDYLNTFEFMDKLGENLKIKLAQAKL
Chain of mIDH1R132H/S280F (O75874 whole entry R132H/S280F): as the sequence (O75874 whole entry R132H) above, with S280F counted along it
Chain of mIDH2R140Q (P48735 40-452 R140Q): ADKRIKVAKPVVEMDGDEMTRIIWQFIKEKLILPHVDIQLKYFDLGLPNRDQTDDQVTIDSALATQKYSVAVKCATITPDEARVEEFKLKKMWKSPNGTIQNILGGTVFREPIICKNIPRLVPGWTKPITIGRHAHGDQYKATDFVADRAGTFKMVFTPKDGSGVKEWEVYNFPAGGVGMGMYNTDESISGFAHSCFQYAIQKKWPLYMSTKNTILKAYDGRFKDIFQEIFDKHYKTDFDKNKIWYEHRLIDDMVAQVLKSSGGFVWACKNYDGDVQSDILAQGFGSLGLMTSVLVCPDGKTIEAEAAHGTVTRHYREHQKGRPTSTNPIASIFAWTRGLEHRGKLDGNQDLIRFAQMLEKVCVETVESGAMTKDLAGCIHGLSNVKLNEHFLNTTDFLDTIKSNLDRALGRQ
Chain of TF1 IDH2R140Q (P48735 40-452 R140Q): as above

IC50 [3] [µM] | IC50 [4] [µM] | IC50 [5] [µM] | IC50 [6] [µM] | SMILES | also measured
0.295 | 1.73 | 0.00024 | 0.123 | C=CC(=O)N1CCN(C2CCCCCCN3C(=O)OCc4cnc(nc43)N[C@@H](C)c3ccc2cc3)CC1 (single isomer, unassigned) [Example 7] | –
0.922 | 4.73 | 0.00019 | 0.351 | C=CC(=O)N1CCN(C2CCCCCCN3C(=O)OCc4cnc(nc43)N[C@@H](C)c3ccc2cc3)CC1 (single isomer, unassigned) [Example 8] | –
0.103 | 1.32 | 0.00032 | 0.269 | C=CC(=O)N1CCN(C2CCCCCCCCN3C(=O)OCc4cnc(nc43)N[C@@H](C)c3ccc2cc3)CC1 (stereo partly drawn) [Example 1, (3S)-5-(4-acryloylpiperazin-1-yl)-3-methyl-1^1,1^4-dihydro-1^2H-2-aza-1(7,1)-pyrimido[4,5-d][1,3]oxazina-4(1,4)-benzenacyclotridecaphan-1^2-one] | –
0.284 | 1.83 | 0.00031 | 0.342 | C=CC(=O)N1CCN(C2CC/C=C\CCCCN3C(=O)OCc4cnc(nc43)N[C@@H](C)c3ccc2cc3)CC1 (stereo partly drawn) [Example 2, (3S,Z)-5-(4-acryloylpiperazin-1-yl)-3-methyl-1^1,1^4-dihydro-1^2H-2-aza-1(7,1)-pyrimido[4,5-d][1,3]oxazina-4(1,4)-benzenacyclotridecaphan-8-en-1^2-one] | –
– | – | 0.0001 | 0.215 | C=CC(=O)N1CCN(C2CCCC/C=C/CCN3C(=O)OCc4cnc(nc43)N[C@@H](C)c3ccc2cc3)CC1 (stereo partly drawn) [Example 5, (3S,E)-5-(4-acryloylpiperazin-1-yl)-3-methyl-1^1,1^4-dihydro-1^2H-2-aza-1(7,1)-pyrimido[4,5-d][1,3]oxazina-4(1,4)-benzenacyclotridecaphan-10-en-12-one] | –
– | – | 0.00026 | 1.72 | C=CC(=O)N1CCN(C2CCC/C=C/CN3C(=O)OCc4cnc(nc43)N[C@@H](C)c3ccc2cc3)CC1 (stereo partly drawn) [Example 6, (3S,Z)-5-(4-acryloylpiperazin-1-yl)-3-methyl-1^1,1^4-dihydro-1^2H-2-aza-1(7,1)-pyrimido[4,5-d][1,3]oxazina-4(1,4)-benzenacycloundecaphan-9-en-1^2-one] | –

The next lines start with the compound.

SMILES | IC50 [3] [µM] | IC50 [4] [µM] | IC50 [5] [µM] | IC50 [6] [µM] | also measured
C[C@@H]1Nc2ncc3c(n2)N(C(=O)OC3)[C@@H](C)CC=CCOCC(N2CCN(C(=O)OC(C)(C)C)CC2)c2ccc1cc2 (stereo partly drawn) | – | – | – | – | ring closure, yield after HPLC ([1]; from C=CCOCC(c1ccc([C@H](C)Nc2ncc3c(n2)N([C@@H](C)CC=C)C(=O)OC3)cc1)N1CCN(C(=O)OC(C)(C)C)CC1, 18-membered ring, Hoveyda-Grubbs II (0.1 eq), 8.24 mM, 9.0 h): 27.6%
C[C@@H]1Nc2ncc3c(n2)N(CC=CCCCC(=O)c2ccc1cc2)C(=O)OC3 | – | – | – | – | ring closure, isolated yield ([2]; from C=CCCCC(=O)c1ccc([C@H](C)Nc2ncc3c(n2)N(CC=C)C(=O)OC3)cc1, 17-membered ring, Grubbs II (2 portions), DCM, 2.04 mM, 40.0 °C, 84.0 h): 52%
C[C@@H]1Nc2ncc3c(n2)N(CC=CCCCC(N2CCN(C(=O)OC(C)(C)C)CC2)c2ccc1cc2)C(=O)OC3 (stereo partly drawn) | – | – | – | – | ring closure, yield after HPLC ([1]; from C=CCCCC(c1ccc([C@H](C)Nc2ncc3c(n2)N(CC=C)C(=O)OC3)cc1)N1CCN(C(=O)OC(C)(C)C)CC1, 17-membered ring, Hoveyda-Grubbs II (2 x 0.1 eq), 8.67 mM, 15.0 h): 21%
C[C@@H]1Nc2ncc3c(n2)N(CC=CCCCCC(=O)c2ccc1cc2)C(=O)OC3 | – | – | – | – | ring closure, isolated yield ([2]; from C=CCCCCC(=O)c1ccc([C@H](C)Nc2ncc3c(n2)N(CC=C)C(=O)OC3)cc1, 18-membered ring, Grubbs II (0.1 eq), DCM, 2.6 mM, 45.0 °C, 48.0 h): 36.5%
C[C@@H]1Nc2ncc3c(n2)N(CCCCC=CCCC(N2CCN(C(=O)OC(C)(C)C)CC2)c2ccc1cc2)C(=O)OC3 (stereo partly drawn) | – | – | – | – | ring closure, isolated yield ([2]; from C=CCCCCN1C(=O)OCc2cnc(N[C@@H](C)c3ccc(C(CCC=C)N4CCN(C(=O)OC(C)(C)C)CC4)cc3)nc21, 19-membered ring, Hoveyda-Grubbs II (0.21 eq), DCE, 16.6 mM, 60.0 °C, 9.0 h): 49.2%
C=CC(=O)N1CCN(C2CCCCCC[C@H](C)N3C(=O)OCc4cnc(nc43)N[C@@H](C)c3ccc2cc3)CC1 (stereo partly drawn) [Example 9, (3S,12S)-5-(4-acryloylpiperazin-1-yl)-3,12-dimethyl-1^1,1^4-dihydro-1^2H-2-aza-1(7,1)-pyrimido[4,5-d][1,3]oxazina-4(1,4)-benzenacyclododecaphan-1^2-one] | 0.094 | 1.49 | 0.00014 | 0.504 | –
C=CC(=O)N1CCN(C2COCCCC[C@H](C)N3C(=O)OCc4cnc(nc43)N[C@@H](C)c3ccc2cc3)CC1 (stereo partly drawn) [Example 10, (3S,12S)-5-(4-acryloylpiperazin-1-yl)-3,12-dimethyl-1^1,1^4-dihydro-1^2H-7-oxa-2-aza-1(7,1)-pyrimido[4,5-d][1,3]oxazina-4(1,4)-benzenacyclododecaphan-1^2-one] | 0.083 | 4.99 | 0.00031 | 1.22 | –
